Target: T1, Sfp (Bacillus subtilis, UniProt P39135)
T1 sequence (P39135 1-224): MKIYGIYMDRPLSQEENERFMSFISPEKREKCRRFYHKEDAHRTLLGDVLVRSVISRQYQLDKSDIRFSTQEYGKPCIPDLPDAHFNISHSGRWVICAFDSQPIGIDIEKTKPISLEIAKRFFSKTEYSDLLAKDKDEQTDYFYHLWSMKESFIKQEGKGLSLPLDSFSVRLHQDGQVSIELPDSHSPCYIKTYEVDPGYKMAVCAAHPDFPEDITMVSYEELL
Assay: ESI-MS of acyl-phosphopantetheine transfer to apo-ACPtcsA
Type: biochemical
Settings: co-substrate apo-ACPtcsA (ACP domain of TcsA)

`CC/C=C/C(=O)SCCNC(=O)CCNC(=O)[C@H](O)C(C)(C)COP(=O)(O)OP(=O)(O)OC[C@H]1O[C@@H](n2cnc3c(N)ncnc32)[C@H](O)[C@@H]1OP(=O)(O)O` [compound 11, trans-2-pentenyl-CoA] was tested, and the “ESI-MS of acyl-phosphopantetheine transfer to apo-ACPtcsA” value was “we biochemically converted apo-ACPtcsA to trans-2-pentenyl-ACPtcsA”.

From paper PMC3030623 (Journal of the American Chemical Society, 2010)
